pIC50: −log10 of the molar value.
Experiments:
MTT cytotoxicity study = format: cell-based, C57bl/6j mice; conditions: male, C57bl/6j, mouse; peritoneal macrophages, 24 h incubation
Protocol: (§1) Peritoneal macrophages (PM) were isolated from the peritoneal exudate of 30 male C57bl/6j mice. To accumulate PM, 1 mL of 3% peptone solution was injected intraperitoneally. After 3 days, the mice were euthanized by cervical dislocation. Cells of peritoneal exudate were obtained by aseptic washing of the abdominal cavity with 5 mL of sterile Hanks’s solution (+4–6 °C) without calcium and magnesium ions. The total number and viability of cells were assessed in a Goryaev counting chamber (Russia) with a 0.4% trypan blue staining (Sigma-Aldrich, St. Louis, MO, USA). The cell concentration was adjusted to 1.0 × 10^6 cells/mL in DMEM (Gibco, Waltham, MA, USA) supplemented with 2 mM L-glutamine (Gibco), 10% heat-inactivated fetal bovine serum (BioClot, Bavaria, Germany), 100 U/mL penicillin, and […] streptomycin (Gibco) and plated 200 µL/well in 96-well transparent plates (SPL Life Sciences Co., Ltd., Pocheon-si, Republic of Korea). After 2 h at 37 °C in a humidified atmosphere with 5% CO2, the wells were washed to remove non-adherent cells. After 24 h of incubation, 20 µL of the supernatants were substituted with 20 µL of solutions of test compounds, followed by E. coli O127:B8 LPS (100 ng/mL final concentration) after 30 min. The experiments were run in 3 independent replicates.
(§2) The activity of lactate dehydrogenase (LDH) in a cell culture medium served as a marker of membrane permeability and cell death. Aliquots of supernatants were taken after 24 h of inoculation with test compounds, mixed with 250 µL of […] NADH solution in 54 mM phosphate-buffered saline (pH 7.5). Then, 25 µL of a 6.48 mM pyruvate solution was added to the mixture. The optical density was followed at a wavelength of 340 nm for 20 min. The MTT test was performed 24 h after incubations of cells with tested compounds. Briefly, 20 µL of MTT solution was added to each well and incubated at 37 °C in a humidified atmosphere containing 5% CO2 for 4 h. The culture medium was removed, the cells were lysed, and formazan crystals were dissolved in 150 µL DMSO. The plates were shaken at room temperature for 10 min, and the optical density was measured in a microplate reader Infinite M200 PRO (Tecan, Grödig, Austria) at a wavelength of 565 nm.

peritoneal macrophages = assay: MTT cytotoxicity study; format: cell-based, C57bl/6j mice
Protocol: as §1, §2

[1] = test system: phagocytic activity of C57bl/6j peritoneal macrophages; assay: Phagocytosis assay (yeast); format: cell-based, C57bl/6j mice; conditions: 72 h of incubation
Protocol: Peritoneal macrophages of C57bl/6j mice were cultured in a 24-well plate at a volume of 500 µL/well (1 × 10^5 cells/mL) for 24 h. Test compounds or DMSO were added to wells in triplicate followed by 50 µL of 1% yeast suspension, and the plates were incubated for 40 min. After 24 or 72 h, the medium was removed. The cells were fixed with May–Grunwald methanol dye and stained with Azur–Eosin in Romanovsky’s modification for 45 min at room temperature, washed, air-dried, and analyzed using a microscope Mikmed-6 (Russia), equipped with a digital camera. The study was performed in three technical replicates and two series; 100 macrophages were processed in each sample to count the captured yeast cells. Macrophage spreading was assessed as a number of pseudopodia.

[2] = test system: IL-6 release in LPS-stimulated primary murine peritoneal macrophages; assay: Inhibition of IL-6 release in LPS-stimulated macrophages (ELISA); format: cell-based, C57bl/6j mice; conditions: Mus musculus, Peritoneal macrophage; LPS-stimulated (100 ng/mL E. coli LPS) peritoneal macrophages; n.a. = not active
Protocol: as §1
(§3) The cell supernatant was collected and centrifuged at 1000× g for 20 min in a 2–16 PK centrifuge (Sigma, Osterode am Harz, Germany). The concentrations of IL-6 and TNF-alpha were determined by ELISA using commercial kits (Cloud-clone, Houston, TX, USA) with a microplate reader Infinite M200 PRO (Tecan, Grödig, Austria).

[3] = test system: NO synthesis in LPS-stimulated primary murine peritoneal macrophages; assay: Inhibition of NO synthesis in LPS-stimulated macrophages (Griess); format: cell-based, C57bl/6j mice; conditions: Mus musculus, Peritoneal macrophage; LPS-stimulated (100 ng/mL E. coli LPS) peritoneal macrophages, supernatants after 22 h; n.a. = not active
Protocol: as §1
The accumulation of the nitrite anion (a stable end product of NO decomposition) in supernatants was determined using a standard Griess reagent. Briefly, 50 µL of supernatants were collected 22 h after incubation of PM, and the test and control compounds were mixed with 50 µL of 1% sulfonamide in 2.5% H3PO4 and 50 µL of 0.1% N-(1-naphthyl) ethylenediamine in 2.5% H3PO4. After incubation at 23 °C for 10 min in an orbital shaker, the optical density was determined at a wavelength of 550 nm with a microplate reader Infinite M200 PRO (Tecan, Grödig, Austria).

[4] = test system: LPS-induced acute lung injury in C57BL/6J mice; assay: LPS-induced acute lung injury: histological study; format: in vivo; conditions: 24 h after LPS; for Mean Injury Score (semi-quantitative morphological score of lung tissue damage): score 0-3, dexamethasone 5 mg/kg, 6e 30 mg/kg i.p. 1 h before oropharyngeal LPS
Protocol: (§4) The randomization of C57BL/6J mice was performed by body weight and motor activity in an open field test. […] The control animals received an equal volume of the vehicle. After 1 h, the mice were anesthetized with isoflurane inhalation until their breathing rate was decreased. The mice were suspended by the front incisors on an inclined surgical table, the tongue was pulled out with narrow curved tweezers, and 1 mg/mL of E. coli O127:B8 LPS (Sigma-Aldrich, St. Louis, MO, USA) in 1 mL/kg sterile saline was instilled into the back of the oropharynx. Intact control animals received an equal volume of sterile saline similarly.
(§5) The mice were anesthetized with 500 mg/kg chloral hydrate (Sigma-Aldrich, St. Louis, MO, USA) intraperitoneally 24 h after LPS administration. Blood was taken by intracardiac puncture in test tubes with heparin. The blood samples were centrifuged at 1000× g and 4 °C for 15 min on a 2–16 PK centrifuge (Sigma, Germany), and plasma was separated and stored at −80 °C until the assay. Thoracotomy was performed, the ligature was applied to the left bronchus and the trachea was cannulated with a 20 G needle. The right lung was washed twice with 0.7 mL of warm sterile saline. After combining aliquots, the bronchoalveolar lavage (BAL) was centrifuged at 800× g and 4 °C for 10 min. The supernatant was separated and stored at −80 °C until the assay. The residual cell pellet was resuspended in 50 µL of PBS for further study. The left lung was washed in saline and placed in 10% buffered formalin for morphological evaluation.
The sections were examined under a light microscope (Zeiss, Germany) by a double-blind method.

[5] = test system: LPS-induced acute lung injury in C57BL/6J mice; assay: LPS-induced acute lung injury: leukocyte markers in blood, BAL and spleen; format: in vivo; conditions: dexamethasone 5 mg/kg, 6e 30 mg/kg i.p.; 24 h after LPS
Protocol: as §4, §5
The total number of leukocytes in heparinized blood was determined after staining with methylene blue in Goryaev’s counting chamber at ×100 magnification. Smears of blood and BAL cell pellets were air-dried, fixed according to May–Grunwald for 3 min, and stained according to Romanowsky–Giemsa. After 30 min, the slides were washed, air-dried, and examined with an immersion objective (×1000 total magnification). On each slide, a total of at least 100 cells were calculated.

[6] = test system: LPS-induced acute lung injury in C57BL/6J mice; assay: LPS-induced acute lung injury: biochemical markers of inflammation (IL-6, lung permeability index); format: in vivo; conditions: 6e 30 mg/kg i.p., 24 h after LPS
Protocol: as §3, §4, §5
The concentration of total protein in BAL supernatants was determined spectrophotometrically with the pyrogallol red method, and the protein in the blood plasma was determined with the biuret method using commercial kits (Vital, Saint Petersburg, Russia) and bovine serum albumin as the standard. The lung permeability index was calculated as the protein concentration in the BAL to plasma ratio.

[7] = test system: LPS-induced acute lung injury in C57BL/6J mice; assay: LPS-induced acute lung injury: open field test; format: in vivo; conditions: 6e 30 mg/kg i.p., within 24 h after LPS; for motor activity in the open field test, in words: dexamethasone 5 mg/kg
Protocol: as §4
The animals were placed in the center of a round open field with an arena of 44 cm diameter and 32 cm wall height under 300 lux lighting. During 5 min of observation, horizontal motor activity, vertical motor activity, time spent in the central part, the number of exits to the central part, and exploratory activity parameters were recorded. Body temperature was determined rectally.

pIC50 [2] | pIC50 [3] | Compound | CC50 at 24 h (MTT cytotoxicity study) [µM] | also measured
 |  | Cc1nc(-c2ccccc2)cc(-c2ccccc2N)n1 [Compound 6a] | > 100 | cytotoxicity in the MTT test, in words (peritoneal macrophages): pronounced cytotoxicity; macrophage phagocytic activity (number of phagocytes), in words [1]: preserve macrophage phagocytic activity; phagocytic capacity (number of yeast cells per macrophage), in words [1]: significantly suppressed macrophage phagocytic capacity; decrease of the mean number of phagocytosed particles ([1]; vs DMSO): 35%
5.66 | 4.68 | Cc1nc(-c2ccccc2)cc(-c2ccc(N)cc2)n1 [Compound 6b] | 65.6 | 
4.46 | 6.43 | Cc1nc(-c2ccc(N)cc2)cc(-c2ccc(F)cc2)n1 [Compound 6c] | > 100 | 
 |  | Cc1nc(-c2ccc(N)cc2)cc(-c2cccc(N)c2)n1 [Compound 6d] | > 100 | 
4.73 | 4.79 | Cc1nc(-c2ccc(N)cc2)cc(-c2ccc(N)cc2)n1 [Compound 6e] | > 100 | histological inflammatory lesions of the lung, in words ([4]; 6e 30 mg/kg i.p., H&E): limited inflammatory lesions; Mean Injury Score (semi-quantitative morphological score of lung tissue damage) [4]: 1.83; BAL: ratio of segmented neutrophils to monocytes, in words [5]: amelioration of this ratio; spleen lymphocytes (systemic immunosuppression), in words [5]: preserved normal content of spleen lymphocytes; lung permeability index, in words ([6]; BAL to plasma protein ratio): preserving the vascular permeability at intact levels; markers of inflammation and lung damage (IL-6 in BAL and plasma, alveolar vessel permeability), in words ([6]; dexamethasone 5 mg/kg): normalized these markers of inflammation and lung damage; plasma IL-6 concentration, in words ([6]; dexamethasone 5 mg/kg): normalized it to intact levels; exploratory behavior in the open field test, in words [7]: improved; motor activity in the open field test, in words [7]: increased the motor activity of mice but was inferior to dexamethasone activity; phagocytic capacity (number of yeast cells per macrophage), in words [1]: retains a nearly normal phagocytic capacity; decrease of the phagocytic index ([1]; vs DMSO): 32%
 | 4.37 | Nc1ccc(-c2cc(-c3ccc(N)cc3)nc(N)n2)cc1 [Compound 6f] | 96.1 | 
< 4.00 | 6.92 | CSc1nc(-c2ccc(N)cc2)cc(-c2ccc(N)cc2)n1 [Compound 6g] | > 100 | 
4.83 | 6.43 | Nc1ccc(-c2cc(-c3ccc(F)cc3)n3ncnc3n2)cc1 [Compound 7a] | > 100 | 
4.50 | 4.34 | Nc1ccc(-c2cc(-c3cccc(N)c3)n3ncnc3n2)cc1 [Compound 7b] | > 100 | 
5.66 | 4.82 | Nc1ccc(-c2cc(-c3ccc(N)cc3)n3ncnc3n2)cc1 [Compound 7c] | 47.1 | cytotoxicity in the MTT test, in words (peritoneal macrophages): pronounced cytotoxicity; macrophage phagocytic activity (number of phagocytes), in words [1]: preserve macrophage phagocytic activity; phagocytic capacity (number of yeast cells per macrophage), in words [1]: significantly suppressed macrophage phagocytic capacity; decrease of the mean number of phagocytosed particles ([1]; vs DMSO): 63%
 | 3.49 | CCOC(=O)C1=C(C)NC(C)=NC1c1cccc(N)c1 (stereo not drawn) [Compound 10a] | > 100 | 
 | 4.14 | CCOC(=O)C1=C(C)NC(C)=NC1c1ccc(N)cc1 (stereo not drawn) [Compound 10b] | 178 | 
 |  | CCOC(=O)C1=C(C)Nc2ncnn2C1c1cccc(N)c1 (stereo not drawn) [Compound 11a] | > 100 | 
 |  | CCOC(=O)C1=C(C)Nc2ncnn2C1c1ccc(N)cc1 (stereo not drawn) [Compound 11b] | > 100 | 
5.60 | 4.63 | C[C@@H]1C[C@H]2[C@@H]3CCC4=CC(=O)C=C[C@]4(C)[C@@]3(F)[C@@H](O)C[C@]2(C)[C@@]1(O)C(=O)CO [Dexamethasone, reference compound] | 97.4 | Mean Injury Score (semi-quantitative morphological score of lung tissue damage) [4]: 1.33; blood: recruitment of segmented neutrophils at the expense of lymphocytes, in words [5]: corrected by dexamethasone; spleen lymphocytes (systemic immunosuppression), in words [5]: significantly decreased proliferation of spleen lymphocytes; plasma IL-6 concentration, in words ([6]; dexamethasone 5 mg/kg): normalized it to intact levels; motor activity in the open field test, in words [7]: corrected by dexamethasone; macrophage phagocytic activity (number of phagocytes), in words [1]: reducing both the number of phagocytes; phagocytic capacity (number of yeast cells per macrophage), in words [1]: reducing both the number of phagocytes and their phagocytic capacity
